The text below walks through data of ChEMBL document CHEMBL5727296, “Amino-triazolopyridine compounds and their use in treating cancer” (2019).

As a reminder, the IC50 is the concentration that gives 50% inhibition. Lower therefore signals greater potency in that assay.

This experiment addresses T1, Dual specificity protein kinase TTK (Homo sapiens, UniProt P33981).
T1 sequence (P33981 whole entry): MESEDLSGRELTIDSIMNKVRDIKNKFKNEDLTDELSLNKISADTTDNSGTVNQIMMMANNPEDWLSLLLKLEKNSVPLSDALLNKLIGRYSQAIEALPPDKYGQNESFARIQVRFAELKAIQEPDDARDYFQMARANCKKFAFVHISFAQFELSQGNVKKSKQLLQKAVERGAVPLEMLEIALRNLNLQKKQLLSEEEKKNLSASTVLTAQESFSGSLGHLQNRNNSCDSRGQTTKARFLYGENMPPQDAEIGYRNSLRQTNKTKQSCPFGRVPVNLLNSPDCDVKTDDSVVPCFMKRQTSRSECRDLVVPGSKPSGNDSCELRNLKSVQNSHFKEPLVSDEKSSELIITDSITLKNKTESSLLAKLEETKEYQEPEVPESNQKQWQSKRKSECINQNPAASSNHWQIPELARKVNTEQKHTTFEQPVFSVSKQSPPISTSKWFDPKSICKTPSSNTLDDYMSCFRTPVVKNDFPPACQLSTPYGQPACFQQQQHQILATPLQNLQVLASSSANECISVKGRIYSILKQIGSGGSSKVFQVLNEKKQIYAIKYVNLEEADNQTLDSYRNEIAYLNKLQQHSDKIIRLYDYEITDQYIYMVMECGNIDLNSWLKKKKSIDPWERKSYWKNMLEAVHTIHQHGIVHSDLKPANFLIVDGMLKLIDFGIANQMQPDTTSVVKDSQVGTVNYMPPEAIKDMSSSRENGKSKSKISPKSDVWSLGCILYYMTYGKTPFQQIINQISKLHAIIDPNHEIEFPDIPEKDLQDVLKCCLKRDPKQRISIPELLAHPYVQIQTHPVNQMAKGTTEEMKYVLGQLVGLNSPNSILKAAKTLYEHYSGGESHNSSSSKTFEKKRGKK
As to the kind of experiment: Enzyme Assay: The inhibitory activity of compounds against AURKA, AURKB, JAK1, JAK2 and JAK3 was determined in Z′-LYTE® assays run by ThermoFisher Scientific as part of their SelectScreen Biochemical Kinase Profiling Service. The Z′-LYTE biochemical assay format employs a fluorescence-based, coupled-enzyme format and is based on the differential sensitivity of phosphorylated and ….

Description: Enzyme Assay: The inhibitory activity of compounds against AURKA, AURKB, JAK1, JAK2 and JAK3 was determined in Z′-LYTE® assays run by ThermoFisher Scientific as part of their SelectScreen Biochemical Kinase Profiling Service. The Z′-LYTE biochemical assay format employs a fluorescence-based, coupled-enzyme format and is based on the differential sensitivity of phosphorylated and non-phosphorylated peptides to proteolytic cleavage. The peptide substrate is labeled with two fluorophores one at each end that make up a FRET pair. In the primary reaction, the kinase transfers the gamma-phosphate of ATP to a single tyrosine, serine or threonine residue in a synthetic FRET-peptide. In the secondary reaction, a site-specific protease recognises and cleaves non-phosphorylated FRET-peptides. Phosphorylation of FRET-peptides suppresses cleavage by the Development Reagent. Cleavage disrupts FRET between the donor (i.e., coumarin) and acceptor (i.e., fluorescein) fluorophore on the FRET-peptide, whereas uncleaved, phosphorylated FRET-peptides maintain FRET. A ratiometric method, which calculates the ratio (the Emission Ratio) of donor emission to acceptor emission after excitation of the donor fluorophore at 400 nm, is used to quantitate reaction progress. Both cleaved and uncleaved FRET-peptides contribute to the fluorescence signals and therefore to the Emission Ratio. The extent of phosphorylation of the FRET-peptide can be calculated from the Emission Ratio.

Take `Cc1cc2ncnn2cc1Nc1ncc2c(n1)n([C@H]1CC[C@@](C)(O)CC1)c(=O)n2C`: inhibition was half-maximal at 0.501 µM (IC50).
